Assay results taken from article PMC4770715, “LIM kinase inhibitors disrupt mitotic microtubule organization and impair tumor cell proliferation” (Oncotarget, 2015).

Columns and labels:
Experiment in all cases: biochemical
Design in all cases: KINOMEscan active-site competition binding, percent of control (100 = no competition)
Conditions in all cases: competition binding, percent control
[1] = target: T1, ABL1(H396P)-nonphosphorylated (Homo sapiens, UniProt P00519, H396P)
T1 construct: nonphosphorylated

CAMK1G = CAMK1G (Homo sapiens, UniProt Q96NX5)
PAK2 = PAK2 (Homo sapiens, UniProt Q13177)
ROCK2 = ROCK2 (Homo sapiens, UniProt O75116)
TRPM6 = TRPM6 (Homo sapiens, UniProt Q9BX84)
[2] = target: EGFR(L747-S752del, P753S) (Homo sapiens, UniProt P00533, DEL747-752/P753S)
PCTK2 = target: T2, PCTK2 (Homo sapiens, UniProt Q00537)
T2 construct: gene CDK17

PLK3 = PLK3 (Homo sapiens, UniProt Q9H4B4)
EPHB1 = EPHB1 (Homo sapiens, UniProt P54762)
SIK = target: T3, SIK (Homo sapiens, UniProt P57059)
T3 construct: gene SIK1

[3] = target: T4, JAK2(JH1domain-catalytic) (Homo sapiens, UniProt O60674)
T4 construct: JH1domain-catalytic

KIT(V559D,V654A) = KIT(V559D,V654A) (Homo sapiens, UniProt P10721, V559D/V654A)
TRKA = target: T5, TRKA (Homo sapiens, UniProt P04629)
T5 construct: gene NTRK1

ABL1-nonphosphorylated = target: T6, ABL1-nonphosphorylated (Homo sapiens, UniProt P00519)
T6 construct: nonphosphorylated

RET(M918T) = RET(M918T) (Homo sapiens, UniProt P07949, M918T)
AURKC = AURKC (Homo sapiens, UniProt Q9UQB9)
FLT3(D835Y) = FLT3(D835Y) (Homo sapiens, UniProt P36888, D835Y)
AXL = AXL (Homo sapiens, UniProt P30530)
ACVRL1 = ACVRL1 (Homo sapiens, UniProt P37023)
TIE2 = target: T7, TIE2 (Homo sapiens, UniProt Q02763)
T7 construct: gene TEK

RIPK4 = RIPK4 (Homo sapiens, UniProt P57078)
[4] = target: T8, RSK3(Kin.Dom.1-N-terminal) (Homo sapiens, UniProt Q15349)
T8 construct: gene RPS6KA2; Kin.Dom.1-N-terminal

Chain of RET(M918T) (P07949 whole entry M918T): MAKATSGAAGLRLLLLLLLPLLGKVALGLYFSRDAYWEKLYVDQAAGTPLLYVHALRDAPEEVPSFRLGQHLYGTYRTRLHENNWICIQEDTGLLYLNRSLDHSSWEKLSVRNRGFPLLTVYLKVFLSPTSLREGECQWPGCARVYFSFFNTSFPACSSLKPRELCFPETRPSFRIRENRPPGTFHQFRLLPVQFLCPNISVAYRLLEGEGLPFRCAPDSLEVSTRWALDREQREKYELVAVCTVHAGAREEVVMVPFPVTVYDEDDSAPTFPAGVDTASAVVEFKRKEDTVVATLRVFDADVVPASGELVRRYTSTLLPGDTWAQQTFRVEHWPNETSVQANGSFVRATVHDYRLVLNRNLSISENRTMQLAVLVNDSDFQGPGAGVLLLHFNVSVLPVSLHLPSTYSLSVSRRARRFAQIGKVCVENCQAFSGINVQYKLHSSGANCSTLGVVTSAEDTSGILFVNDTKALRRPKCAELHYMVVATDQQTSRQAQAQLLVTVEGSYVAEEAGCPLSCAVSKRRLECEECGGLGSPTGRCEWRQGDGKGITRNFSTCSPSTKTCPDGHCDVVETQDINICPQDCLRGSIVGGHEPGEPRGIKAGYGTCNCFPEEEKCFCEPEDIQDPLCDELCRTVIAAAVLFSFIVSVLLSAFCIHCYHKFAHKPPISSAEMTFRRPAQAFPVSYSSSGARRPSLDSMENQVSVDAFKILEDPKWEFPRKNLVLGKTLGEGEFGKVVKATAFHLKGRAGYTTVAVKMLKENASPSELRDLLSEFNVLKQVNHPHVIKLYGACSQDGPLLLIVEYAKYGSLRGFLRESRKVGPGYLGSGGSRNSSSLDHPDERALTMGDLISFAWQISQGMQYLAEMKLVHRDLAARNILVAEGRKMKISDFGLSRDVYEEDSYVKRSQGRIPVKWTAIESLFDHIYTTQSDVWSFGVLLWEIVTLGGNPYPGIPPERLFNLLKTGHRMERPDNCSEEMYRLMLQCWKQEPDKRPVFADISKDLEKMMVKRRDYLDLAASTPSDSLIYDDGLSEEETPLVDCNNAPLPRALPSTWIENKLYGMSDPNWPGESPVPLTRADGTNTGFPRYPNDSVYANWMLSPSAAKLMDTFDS
Chain of TRPM6 (Q9BX84 whole entry): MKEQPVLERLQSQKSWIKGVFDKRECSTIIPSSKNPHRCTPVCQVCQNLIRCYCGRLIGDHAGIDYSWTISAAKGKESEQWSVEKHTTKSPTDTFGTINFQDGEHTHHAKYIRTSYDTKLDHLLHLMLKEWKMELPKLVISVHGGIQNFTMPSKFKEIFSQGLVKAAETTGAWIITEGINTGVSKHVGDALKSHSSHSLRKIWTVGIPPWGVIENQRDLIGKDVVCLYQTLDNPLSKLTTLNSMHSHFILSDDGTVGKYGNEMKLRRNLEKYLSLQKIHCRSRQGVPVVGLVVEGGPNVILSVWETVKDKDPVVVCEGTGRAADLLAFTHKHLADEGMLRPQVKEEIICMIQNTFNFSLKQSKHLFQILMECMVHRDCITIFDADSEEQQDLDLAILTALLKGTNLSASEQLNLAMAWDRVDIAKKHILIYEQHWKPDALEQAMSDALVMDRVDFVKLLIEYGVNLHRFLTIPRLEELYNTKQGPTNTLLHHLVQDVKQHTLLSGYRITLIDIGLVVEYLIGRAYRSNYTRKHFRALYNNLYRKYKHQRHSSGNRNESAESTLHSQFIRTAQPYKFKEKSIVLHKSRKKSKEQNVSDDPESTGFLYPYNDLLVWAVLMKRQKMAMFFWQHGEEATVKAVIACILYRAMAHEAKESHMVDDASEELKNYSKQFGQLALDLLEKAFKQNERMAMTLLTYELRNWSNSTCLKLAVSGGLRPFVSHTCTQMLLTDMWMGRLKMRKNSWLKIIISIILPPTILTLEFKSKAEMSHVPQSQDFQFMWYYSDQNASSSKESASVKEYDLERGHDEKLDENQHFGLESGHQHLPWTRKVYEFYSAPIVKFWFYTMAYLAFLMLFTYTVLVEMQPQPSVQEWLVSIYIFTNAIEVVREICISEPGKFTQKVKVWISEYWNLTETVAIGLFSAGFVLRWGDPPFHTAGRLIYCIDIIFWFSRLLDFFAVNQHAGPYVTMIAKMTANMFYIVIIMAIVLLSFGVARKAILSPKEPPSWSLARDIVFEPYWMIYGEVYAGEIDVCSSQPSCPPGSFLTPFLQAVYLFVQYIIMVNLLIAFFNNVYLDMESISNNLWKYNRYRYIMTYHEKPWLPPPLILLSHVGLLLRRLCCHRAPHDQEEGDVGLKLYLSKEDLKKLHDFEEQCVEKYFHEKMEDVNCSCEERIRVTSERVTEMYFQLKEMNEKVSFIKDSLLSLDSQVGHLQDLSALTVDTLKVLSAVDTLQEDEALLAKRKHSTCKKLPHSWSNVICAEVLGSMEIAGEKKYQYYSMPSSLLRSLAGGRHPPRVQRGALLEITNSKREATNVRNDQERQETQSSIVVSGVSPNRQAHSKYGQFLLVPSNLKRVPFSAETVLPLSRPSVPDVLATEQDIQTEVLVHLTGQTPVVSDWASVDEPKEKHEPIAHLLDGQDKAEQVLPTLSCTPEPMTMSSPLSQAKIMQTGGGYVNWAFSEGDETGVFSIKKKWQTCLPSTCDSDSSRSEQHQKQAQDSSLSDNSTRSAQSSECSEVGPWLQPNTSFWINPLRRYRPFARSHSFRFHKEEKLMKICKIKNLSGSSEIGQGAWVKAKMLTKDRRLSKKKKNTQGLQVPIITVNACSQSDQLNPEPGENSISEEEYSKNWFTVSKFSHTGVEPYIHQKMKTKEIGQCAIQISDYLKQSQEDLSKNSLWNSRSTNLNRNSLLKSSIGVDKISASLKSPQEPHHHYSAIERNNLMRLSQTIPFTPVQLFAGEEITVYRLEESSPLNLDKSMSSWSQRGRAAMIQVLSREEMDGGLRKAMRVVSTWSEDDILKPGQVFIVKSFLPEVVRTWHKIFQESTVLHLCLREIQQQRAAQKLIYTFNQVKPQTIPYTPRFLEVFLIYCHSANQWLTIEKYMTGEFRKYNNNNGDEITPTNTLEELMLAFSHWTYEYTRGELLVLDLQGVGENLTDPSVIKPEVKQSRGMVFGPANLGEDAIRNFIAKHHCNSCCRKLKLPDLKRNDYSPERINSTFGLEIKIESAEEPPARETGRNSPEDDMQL
T4 sequence (O60674 whole entry): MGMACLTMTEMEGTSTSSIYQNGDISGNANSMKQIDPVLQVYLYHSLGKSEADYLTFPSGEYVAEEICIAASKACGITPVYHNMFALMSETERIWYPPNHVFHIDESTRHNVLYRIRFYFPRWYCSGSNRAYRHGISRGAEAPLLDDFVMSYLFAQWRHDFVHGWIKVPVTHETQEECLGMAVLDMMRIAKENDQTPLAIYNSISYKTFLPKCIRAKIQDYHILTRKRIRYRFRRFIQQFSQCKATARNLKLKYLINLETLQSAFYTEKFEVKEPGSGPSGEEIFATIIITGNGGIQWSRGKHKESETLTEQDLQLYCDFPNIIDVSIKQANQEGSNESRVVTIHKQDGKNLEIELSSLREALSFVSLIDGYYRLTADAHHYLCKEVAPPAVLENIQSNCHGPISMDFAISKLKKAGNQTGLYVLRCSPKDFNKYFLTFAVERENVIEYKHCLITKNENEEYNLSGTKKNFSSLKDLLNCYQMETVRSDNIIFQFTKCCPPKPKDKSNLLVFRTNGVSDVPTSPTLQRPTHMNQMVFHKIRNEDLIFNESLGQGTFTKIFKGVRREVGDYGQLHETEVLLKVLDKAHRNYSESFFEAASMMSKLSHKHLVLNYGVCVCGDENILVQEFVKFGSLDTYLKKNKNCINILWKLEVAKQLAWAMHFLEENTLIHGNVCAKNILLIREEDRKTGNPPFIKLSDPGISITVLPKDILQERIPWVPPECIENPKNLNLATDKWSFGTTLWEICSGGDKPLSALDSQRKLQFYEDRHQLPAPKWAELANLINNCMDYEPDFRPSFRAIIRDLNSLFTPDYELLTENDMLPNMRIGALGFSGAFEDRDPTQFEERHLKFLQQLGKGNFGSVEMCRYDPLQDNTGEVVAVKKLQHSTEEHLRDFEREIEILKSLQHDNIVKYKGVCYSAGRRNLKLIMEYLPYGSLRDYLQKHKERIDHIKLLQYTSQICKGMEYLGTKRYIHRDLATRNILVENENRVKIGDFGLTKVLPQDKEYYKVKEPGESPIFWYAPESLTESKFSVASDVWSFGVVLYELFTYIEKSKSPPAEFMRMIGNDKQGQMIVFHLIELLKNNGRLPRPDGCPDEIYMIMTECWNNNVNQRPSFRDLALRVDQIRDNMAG
Chain of ACVRL1 (P37023 whole entry): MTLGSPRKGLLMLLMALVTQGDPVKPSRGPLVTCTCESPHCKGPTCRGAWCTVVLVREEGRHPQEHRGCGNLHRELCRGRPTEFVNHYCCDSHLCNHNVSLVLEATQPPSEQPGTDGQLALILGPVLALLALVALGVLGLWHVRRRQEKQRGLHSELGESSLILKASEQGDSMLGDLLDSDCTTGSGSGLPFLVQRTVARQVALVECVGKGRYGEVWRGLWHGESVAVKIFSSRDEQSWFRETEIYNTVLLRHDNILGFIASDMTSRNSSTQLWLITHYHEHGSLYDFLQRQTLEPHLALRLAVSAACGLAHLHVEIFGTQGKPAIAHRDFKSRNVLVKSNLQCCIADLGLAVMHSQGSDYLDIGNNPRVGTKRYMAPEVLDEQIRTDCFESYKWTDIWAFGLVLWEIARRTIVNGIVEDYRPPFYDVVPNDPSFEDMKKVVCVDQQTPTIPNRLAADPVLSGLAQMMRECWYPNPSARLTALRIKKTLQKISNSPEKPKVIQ
Chain of AURKC (Q9UQB9 whole entry): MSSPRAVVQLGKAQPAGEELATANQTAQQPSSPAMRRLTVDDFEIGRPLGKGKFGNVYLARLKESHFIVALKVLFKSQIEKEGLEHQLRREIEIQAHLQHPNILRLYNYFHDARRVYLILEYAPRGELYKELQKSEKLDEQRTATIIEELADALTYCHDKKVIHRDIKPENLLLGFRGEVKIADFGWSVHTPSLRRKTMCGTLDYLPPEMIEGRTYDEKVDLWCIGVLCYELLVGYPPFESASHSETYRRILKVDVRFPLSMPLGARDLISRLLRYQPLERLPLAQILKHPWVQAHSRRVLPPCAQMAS

Work on `COc1ccc(-c2cnccc2-c2cnc(NC(=O)C(C)C)s2)c(C(F)(F)F)c1` [CRT0105446, N-{5-[3-(4-Methoxy-2-trifluoromethyl-phenyl)-pyridin-4-yl]-hiazol-2-yl}-isobutyramide] yielded a remaining binding at 10 µM [1] of 71%, a remaining binding at 10 µM (CAMK1G) of 99% and a remaining binding at 10 µM (PAK2) of 80%. The remaining binding at 10 µM (ROCK2) was 95%, the remaining binding at 10 µM (TRPM6) was 94% and the remaining binding at 10 µM [2] was 92%. For the same molecule, the remaining binding at 10 µM (PCTK2) was 17%, the remaining binding at 10 µM (PLK3) was 97% and the remaining binding at 10 µM (EPHB1) was 88%. The remaining binding at 10 µM (SIK) was 84%, the remaining binding at 10 µM [3] was 100% and the remaining binding at 10 µM (KIT(V559D,V654A)) was 100%. For the same molecule, the remaining binding at 10 µM (TRKA) was 70%, the remaining binding at 10 µM (ABL1-nonphosphorylated) was 82% and the remaining binding at 10 µM (RET(M918T)) was 91%. The remaining binding at 10 µM (AURKC) was 88%, the remaining binding at 10 µM (FLT3(D835Y)) was 20% and the remaining binding at 10 µM (AXL) was 87%. The remaining binding at 10 µM (ACVRL1) was 100%, the remaining binding at 10 µM (TIE2) was 87% and the remaining binding at 10 µM (RIPK4) was 100%. It also gave a remaining binding at 10 µM [4] of 71%.
Work on `Cc1ccc(-c2cnccc2-c2cnc(Nc3ccc(O)cc3)s2)c(Cl)c1` [CRT0105950, 4-{5-[3-(2-Chloro-4-methyl-phenyl)-pyridin-4-yl]-thiazol-2-ylamino}-phenol] yielded a remaining binding at 10 µM [1] of 27%, a remaining binding at 10 µM (CAMK1G) of 57% and a remaining binding at 10 µM (PAK2) of 76%. It also gave a remaining binding at 10 µM (ROCK2) of 77%, a remaining binding at 10 µM (TRPM6) of 93% and a remaining binding at 10 µM [2] of 66%. The remaining binding at 10 µM (PCTK2) was 52%, the remaining binding at 10 µM (PLK3) was 44% and the remaining binding at 10 µM (EPHB1) was 80%. It also gave a remaining binding at 10 µM (SIK) of 6.4%, a remaining binding at 10 µM [3] of 19% and a remaining binding at 10 µM (KIT(V559D,V654A)) of 11%. For the same molecule, the remaining binding at 10 µM (TRKA) was 1%, the remaining binding at 10 µM (ABL1-nonphosphorylated) was 43% and the remaining binding at 10 µM (RET(M918T)) was 0.35%. For the same molecule, the remaining binding at 10 µM (AURKC) was 3.8%, the remaining binding at 10 µM (FLT3(D835Y)) was 1.2% and the remaining binding at 10 µM (AXL) was 43%. It also gave a remaining binding at 10 µM (ACVRL1) of 100%, a remaining binding at 10 µM (TIE2) of 44% and a remaining binding at 10 µM (RIPK4) of 99%. It also gave a remaining binding at 10 µM [4] of 0.15%.
